Tests used:
[1] = 1 week stability study (XRPD and HPLC); format: physicochemical; conditions: 1 week
Method: (§1) Resulting solids were analysed by XRPD and HPLC to establish if any changes had occurred.
as §1
The resulting solids were analysed by XRPD and HPLC to establish if any changes had occurred.

[2] = Salt disproportionation study (slurry in deionized water); format: physicochemical; conditions: for pH of the supernatant: deionized water slurry; for Disproportionation study, result of slurrying (XRPD): deionized water, ambient
Method: The pH of the supernatant was also monitored.
The hydrobromide salt was slurried in deionised water at ambient temperature (ca. 22° C.). […] The pH of the supernatant was also monitored.

[3] = Dynamic vapour sorption (DVS); format: physicochemical
Method: For dynamic vapour sorption (DVS), approximately 10-20 mg of sample was placed into a wire mesh vapour sorption balance pan and loaded into a DVS-1 dynamic vapour sorption balance by Surface Measurement Systems. The sample was subjected to a ramping profile from 20-90% relative humidity (RH) at 10% increments, maintaining the sample at each step until a stable weight had been achieved (99.5% step completion). After completion of the sorption cycle, the sample was dried using the same procedure, but all the way down to 0% RH and finally taken back to the starting point of 20% RH. The weight change during the sorption/desorption cycles were plotted, allowing for the hygroscopic nature of the sample to be determined.

[4] = Intrinsic dissolution of compressed discs; format: physicochemical
Method: A Sotax AT7 dissolution bath (USP 2, EP 2 apparatus) was used for the dissolution study in which paddles were used to stir the media. All tests were carried out at 37° C. and a paddle speed of 100 rpm.
(§2) Approximately 100-120 mg of each form was compressed into discs by placing the material into a die (diameter: 13 mm) and compressing the die under 5 tons of pressure in a hydraulic press for ca. 2 minutes. A Sotax AT7 (conformed to EP2 and USP2) dissolution instrument was used containing paddles to stir the media at 100 rpm. Dissolution media of pH 3 (1% SDS) and pH 4.5 (1% SDS) were prepared using citrate/phosphate buffer. All materials were tested in 750 ml of the buffer medium. Discs were added at time=0 seconds and allowed to sink to the bottom of the dissolution vessel before stirring began. ca. 1 ml aliquots of media were extracted from the dissolution vessels at times 1, 5, 10, 15, 30, 60, 120, 240 minutes and 24 hours, and tested for dissolved salt concentration by HPLC-UV. The dissolution tests were carried out in duplicate. For both dissolution media, the peak areas for the initial time points (up to 15 minutes), fell below the limit of quantification, however, when plotting Dissolution rate vs. time, the steepest part of the curve occurs during these early time points.
as §2, with “material” for “each form”, “API” for “dissolved salt”

[5] = Hydration study (slurry in solvent:water mixtures, XRPD); format: physicochemical; conditions: ambient, ca. 3-4 days
Method: The resulting solids were then analyzed by XRPD to determine if any changes had occurred on slurrying.
Slurries of the hydrobromide salt were created in acetone:water mixtures (3%, 5% and 10%) and stirred at ambient for ca. 3 days. The resulting solids were then analysed by XRPD to determine if any changes had occurred on slurrying.
Slurries were created using ca. 200 mg of Form I salt material in 2 mL of the appropriate solvent system. These were stirred at ca. 55° C. for 6 hours.
Slurries were created using ca. 200 mg of Form I salt material in 2 mL of the appropriate solvent system.

[6] = Thermodynamic solubility in media of various pH (HPLC; XRPD of excess solids); conditions: for Thermodynamic Solubility: ca. 24 hours
Method: The remaining solids were also analysed by XRPD analysis to establish if any changes in the solid form occurred.
The remaining solids were also analysed by XRPD analysis to establish if any changes in the solid form occurred. For the buffer solutions, KCl/HCl was used for pH 1 and citrate/phosphate combinations for pH 3, 4.5 and 6.6.
The remaining solids were also analysed by XRPD analysis to establish if any changes in the solid form occurred. For the buffer solutions, KCl/HCl was used for pH 1 and citric acid/sodium citrate combinations for pH 3, 4.5 and 6.2.
The solids were then removed by filtration and tested by XRPD analysis. The mother liquors were analyzed by HPLC to determine API solubility.
For the buffer solutions, KCl/HCl was used for pH 1 and citrate/phosphate combinations for pH 3, 4.5 and 6.6 (10 mM). The pH of the solutions was also measured prior to HPLC analysis.

[7] = 1 week stability of primary screen salts at 40° C./75% RH and 80° C. (open vials, XRPD); format: physicochemical; conditions: listed as Besylate (2 equiv.) Form I
Method: (open vials). TGA was carried out after the stability studies for samples containing sufficient material.

[8] = system: human non-small cell lung cancer cell; conditions: cited from earlier work
mutant EGFR kinase = conditions: enzymatic and cellular assays; cited from earlier work
[9] = system: human non-small cell lung cancer cell; conditions: cited from earlier work; remark: listed apart in the source
[10] = Slurry in pH 6.2 aqueous medium (conversion to unknown solid form); format: physicochemical; conditions: slurry as for the hydrobromide at pH 6.2, XRPD
Method: In attempts to characterize this form, as well as establish the rate of conversion to this form while slurrying the material, the following experiments were carried out. Initially, approximately 100 mg of the hydrobromide (1 equiv.) material was slurried in a pH 6.2 aqueous solution at ambient and XRPD analysis was carried out at time points 5 min., 1 hr, 2 hrs, 4 hrs and 8 hrs. Further analysis was then also carried out on the converted material.

[11] = 40° C./75% RH, closed (crimped) vial

SMILES: C=CC(=O)Nc1cccc(Nc2nc(Nc3ccc(N4CCN(C(C)=O)CC4)cc3OC)ncc2C(F)(F)F)c1.O=S(=O)(O)c1ccccc1.O=S(=O)(O)c1ccccc1 [bis-besylate salt]
- HPLC purity after storage [1, 11]: 97.35%
- XRPD after storage [1, 11]: No change in polymorphic form.
- HPLC purity after storage ([1]; 40° C./75% RH, open vial): 97.22%
- XRPD after storage ([1]; 40° C./75% RH, open vial): Change in polymorphic form,
- HPLC purity after storage ([1]; 80° C., open vial): 97.20%
- XRPD after storage ([1]; 80° C., open vial): Corresponds predominantly with input
- pH of the supernatant ([2]; 1 hr): pH 2-3
- pH of the supernatant ([2]; 24 hrs): pH 1-2
- pH of the supernatant ([2]; 48 hrs): pH 1-2
- Disproportionation study, result of slurrying (XRPD) ([2]; 1 hr): Yellow gum present.
- Disproportionation study, result of slurrying (XRPD) ([2]; 24 hrs): Different from starting material, appears to
- Disproportionation study, result of slurrying (XRPD) ([2]; 48 hrs): Different from starting material, appears to
- post DVS XRPD analysis (polymorphic form) ([3]; after DVS cycles): change in polymorphic form
- water uptake (DVS) ([3]; between 20 and 70% RH): ca. 2.2%
- intrinsic dissolution value ([4]; pH 3.0 (1% SDS), early time points, tablet 1): approximately 0.36 mg/cm^2/min
- intrinsic dissolution value ([4]; pH 3.0 (1% SDS), early time points, tablet 2): ~0.38 mg/cm^2/min
- intrinsic dissolution value ([4]; pH 3.0 (1% SDS), later time points, tablet 1): 0.08 mg/cm^2/min
- intrinsic dissolution value ([4]; pH 3.0 (1% SDS), later time points, tablet 2): 0.07 mg/cm^2/min
- intrinsic dissolution value ([4]; pH 4.5 (1% SDS), early time points, tablet 1): approximately 0.61 mg/cm^2/min
- intrinsic dissolution value ([4]; pH 4.5 (1% SDS), early time points, tablet 2): approximately 0.61 mg/cm^2/min
- intrinsic dissolution value ([4]; pH 4.5 (1% SDS), later time points, tablet 1): 0.09 mg/cm^2/min
- intrinsic dissolution value ([4]; pH 4.5 (1% SDS), later time points, tablet 2): 0.08 mg/cm^2/min
- Hydration study, result of slurrying ([5]; Acetone:water (3%)): Corresponds with the input bis-
- Hydration study, result of slurrying ([5]; Acetone:water (10%)): Different from the bis-besylate input
- XRPD of excess solids ([6]; pH 1.0, KCl/HCl): Diffractogram corresponds with the hydrated
- Thermodynamic Solubility ([6]; pH 1.0, KCl/HCl buffer): 4930 µg/mL
- XRPD of excess solids ([6]; pH 3.0, Citrate/Phosphate): Change in diffractogram - does not correspond
- Thermodynamic Solubility ([6]; pH 3.0, Citrate/Phosphate): 240 µg/mL
- XRPD of excess solids ([6]; pH 3.0, KHP/HCl): Change in diffractogram - does not correspond
- Thermodynamic Solubility ([6]; pH 3.0, KHP/HCl): 260 µg/mL
- XRPD of excess solids ([6]; pH 4.5, Citrate/Phosphate): Change in diffractogram - does not correspond
- Thermodynamic Solubility ([6]; pH 4.5, Citrate/Phosphate): 430 µg/mL
- XRPD of excess solids ([6]; pH 4.5, KHP/NaOH): Change in diffractogram - does not correspond
- Thermodynamic Solubility ([6]; pH 4.5, KHP/NaOH): 100 µg/mL
- XRPD of excess solids ([6]; pH 6.6, Citrate/Phosphate): Change in diffractogram - does not correspond
- Thermodynamic Solubility ([6]; pH 6.6, Citrate/Phosphate): 660 µg/mL
- XRPD of excess solids ([6]; pH 6.6, Phosphate/NaOH): Change in diffractogram - does not correspond
- Thermodynamic Solubility ([6]; pH 6.6, Phosphate/NaOH): 170 µg/mL
- Stability 40° C./75% RH (open conditions) [7]: Solid/gum present.

SMILES: C=CC(=O)Nc1cccc(Nc2nc(Nc3ccc(N4CCN(C(C)=O)CC4)cc3OC)ncc2C(F)(F)F)c1 [Compound 1, N-(3-(2-(4-(4-acetylpiperazin-1-yl)-2-methoxyphenylamino)-5-(trifluoromethyl)pyrimidin-4-ylamino)phenyl)acrylamide]
- inhibition of cell proliferation in vivo [8]: inhibit
- inhibition of mutant EGFR kinase (mutant EGFR kinase): selective covalent, irreversible inhibition
- inhibition of cell proliferation in vitro [9]: inhibit
- solid form after slurry experiment [10]: remained as the free base Form I

— patent US10570099B2, “Salts of an epidermal growth factor receptor kinase inhibitor” (Celgene CAR LLC, priority 2012, dated 2020)
